The record followed here is patent publication US11208400B2, “Substituted 6-(1H-pyrazol-1-yl)pyrimidin-4-amine derivatives and uses thereof” (Bayer Aktiengesellschaft, priority 2016, dated 2021).

Structures are written as SMILES.

In the test the target is T1, human Npt2a (Homo sapiens, UniProt Q06495).
T1 construct: expressed in transfected cells
T1 sequence (Q06495 1-639): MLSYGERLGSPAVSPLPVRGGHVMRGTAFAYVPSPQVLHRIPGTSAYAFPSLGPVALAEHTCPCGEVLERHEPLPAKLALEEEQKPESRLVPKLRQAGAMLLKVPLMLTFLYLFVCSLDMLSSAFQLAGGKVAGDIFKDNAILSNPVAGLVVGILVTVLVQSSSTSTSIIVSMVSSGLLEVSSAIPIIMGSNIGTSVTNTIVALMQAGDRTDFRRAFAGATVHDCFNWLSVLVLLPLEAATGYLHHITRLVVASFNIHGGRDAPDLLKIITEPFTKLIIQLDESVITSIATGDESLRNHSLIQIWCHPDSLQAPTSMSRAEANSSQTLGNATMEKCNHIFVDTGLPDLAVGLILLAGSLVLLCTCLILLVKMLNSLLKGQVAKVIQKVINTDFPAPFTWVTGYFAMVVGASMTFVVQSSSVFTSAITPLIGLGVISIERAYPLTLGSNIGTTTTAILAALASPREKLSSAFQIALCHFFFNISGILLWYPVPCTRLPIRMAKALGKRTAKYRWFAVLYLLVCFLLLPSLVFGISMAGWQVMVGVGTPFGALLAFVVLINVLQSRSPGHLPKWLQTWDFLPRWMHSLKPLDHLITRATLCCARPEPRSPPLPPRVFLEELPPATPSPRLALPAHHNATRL
The experiment in a line: Npt2a activity cell based assay, membrane potential dye, CHO T-REx hNpt2a cells. Particulars: doxycycline-induced, depolarization by sodium phosphate influx, average or median values if tested more than once. The method, boiled down: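 Cells were doxycycline-induced CHO T-REx hNpt2a, dye-loaded and pretreated 5 min at RT with 1 nM–50 μM compound in Na-free pH 7.4 buffer. IC50 was fit to the post/pre-trigger fluorescence ratio.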
Take `CCc1c(Nc2cc(-n3nc(C)c(C(=O)N4CCCC4C)c3C)ncn2)nn(C)c1-c1ccc(F)cc1` (racemic) [Example 76, (±)-[1-(6-{[4-ethyl-5-(4-fluorophenyl)-1-methyl-1H-pyrazol-3-yl]amino}pyrimidin-4-yl)-3,5-dimethyl-1H-pyrazol-4-yl](2-methylpyrrolidin-1-yl)methanone]: the concentration for half-maximal inhibition (IC50) was determined as 190 nM.
To `Cc1c(-c2ccc(F)cc2)nn(CC2CC2)c1Nc1cc(-n2cc3c(n2)CN(C(=O)OC(C)(C)C)C3)ncn1` [Example 433, tert-butyl 2-(6-{[1-(cyclopropylmethyl)-3-(4-fluorophenyl)-4-methyl-1H-pyrazol-5-yl]amino}pyrimidin-4-yl)-2,6-dihydropyrrolo[3,4-c]pyrazole-5(4H)-carboxylate] belongs 1500 nM; to `Cc1cc(C)n(-c2cc(Nc3c(C)c(-c4ccc(C#N)cc4)nn3CC(F)F)ncn2)n1` [Example 248, 4-[1-(2,2-difluoroethyl)-5-{[6-(3,5-dimethyl-1H-pyrazol-1-yl)pyrimidin-4-yl]amino}-4-methyl-1H-pyrazol-3-yl]benzonitrile], 182 nM; to `CCc1c(-c2ccc(F)cc2)nn(CCOCc2ccccc2)c1Nc1cc(-n2nc(C)cc2C)ncn1` [Example 32, N-{1-[2-(benzyloxy)ethyl]-4-ethyl-3-(4-fluorophenyl)-1H-pyrazol-5-yl}-6-(3,5-dimethyl-1H-pyrazol-1-yl)pyrimidin-4-amine], 690 nM.
Under `Cc1nn(-c2cc(Nc3c(C)c(-c4ccncc4)nn3CC3CC3)ncn2)c(C)c1C(C)(C)O` [Example 380, 2-[1-(6-{[1-(cyclopropylmethyl)-4-methyl-3-(pyridin-4-yl)-1H-pyrazol-5-yl]amino}pyrimidin-4-yl)-3,5-dimethyl-1H-pyrazol-4-yl]propan-2-ol] stands 170 nM; under `Cc1nn(-c2cc(Nc3c(C)c(-c4ccc(OC(F)F)cc4)nn3CC3CC3)ncn2)c(C)c1Cl` [Example 398, 6-(4-chloro-3,5-dimethyl-1H-pyrazol-1-yl)-N-{1-(cyclopropylmethyl)-3-[4-(difluoromethoxy)phenyl]-4-methyl-1H-pyrazol-5-yl}pyrimidin-4-amine], 25 nM.
Under `CCc1c(Nc2cc(-n3ncc4c3CCN(C(=O)OC(C)(C)C)C4)ncn2)n[nH]c1-c1ccc(F)cc1` [Example 33, tert-butyl 1-(6-{[4-ethyl-5-(4-fluorophenyl)-1H-pyrazol-3-yl]amino}pyrimidin-4-yl)-1,4,6,7-tetrahydro-5H-pyrazolo[4,3-c]pyridine-5-carboxylate] stands 1000 nM; under `CCOC(=O)c1c(C)nn(-c2cc(Nc3c(C)c(-c4ccc(F)cn4)nn3CCOC)ncn2)c1C` [Example 545, ethyl 1-(6-{[3-(5-fluoropyridin-2-yl)-1-(2-methoxyethyl)-4-methyl-1H-pyrazol-5-yl]amino}pyrimidin-4-yl)-3,5-dimethyl-1H-pyrazole-4-carboxylate], 14 nM.
`Cc1nn(-c2cc(Nc3c(C)c(-c4ccc(C(F)(F)F)cc4)nn3CC3CC3)ncn2)c(C)c1C(C)(C)O` [Example 292, 2-{1-[6-({1-(cyclopropylmethyl)-4-methyl-3-[4-(trifluoromethyl)phenyl]-1H-pyrazol-5-yl}amino)pyrimidin-4-yl]-3,5-dimethyl-1H-pyrazol-4-yl}propan-2-ol] had a half-inhibitory concentration (IC50) of 240 nM.
To `Cc1nn(-c2cc(Nc3c(C)c(-c4ccc(F)cc4)nn3CC3CC3)ncn2)c(C)c1Br` [Example 406, 6-(4-bromo-3,5-dimethyl-1H-pyrazol-1-yl)-N-[1-(cyclopropylmethyl)-3-(4-fluorophenyl)-4-methyl-1H-pyrazol-5-yl]pyrimidin-4-amine] belongs 3 nM; to `COCCn1nc(-c2ccc(F)cn2)c(C)c1Nc1cc(-n2nc(C)c(C(=O)N(C)C)c2C)ncn1` [Example 557, 1-(6-{[3-(5-fluoropyridin-2-yl)-1-(2-methoxyethyl)-4-methyl-1H-pyrazol-5-yl]amino}pyrimidin-4-yl)-N,N,3,5-tetramethyl-1H-pyrazole-4-carboxamide], 1000 nM.
`CCc1c(Nc2cc(-n3nc(C)c(CN4CCN(C)CC4)c3C)ncn2)nn(C)c1-c1ccc(F)cc1` [Example 297, 6-{3,5-dimethyl-4-[(4-methylpiperazin-1-yl)methyl]-1H-pyrazol-1-yl}-N-[4-ethyl-5-(4-fluorophenyl)-1-methyl-1H-pyrazol-3-yl]pyrimidin-4-amine]: the IC50 is 1430 nM.
To `COc1c(C)nn(-c2cc(Nc3c(C)c(-c4ccc(C(F)(F)F)nc4)nn3C)ncn2)c1C` [Example 551, N-{1,4-dimethyl-3-[6-(trifluoromethyl)pyridin-3-yl]-1H-pyrazol-5-yl}-6-(4-methoxy-3,5-dimethyl-1H-pyrazol-1-yl)pyrimidin-4-amine] belongs 1900 nM.
Compound `Cc1cc(C)n(-c2cc(Nc3c(C)c(-c4ccc(F)cc4)nn3CC(O)C3CC3)ncn2)n1` (single isomer, unassigned) [Example 370, 1-cyclopropyl-2-[5-{[6-(3,5-dimethyl-1H-pyrazol-1-yl)pyrimidin-4-yl]amino}-3-(4-fluorophenyl)-4-methyl-1H-pyrazol-1-yl]ethanol] registered an IC50 of 2400 nM.
To `CCOC(=O)c1c(C)nn(-c2cc(Nc3nn(C)c(-c4ccccc4)c3Cl)ncn2)c1C` [Example 81, ethyl 1-{6-[(4-chloro-1-methyl-5-phenyl-1H-pyrazol-3-yl)amino]pyrimidin-4-yl}-3,5-dimethyl-1H-pyrazole-4-carboxylate] belongs 11 nM.
To `Cc1nn(-c2cc(Nc3c(Cl)c(-c4ccc(F)cc4)nn3CC3CC3)ncn2)c(C)c1Cl` [Example 185, N-[4-chloro-1-(cyclopropylmethyl)-3-(4-fluorophenyl)-1H-pyrazol-5-yl]-6-(4-chloro-3,5-dimethyl-1H-pyrazol-1-yl)pyrimidin-4-amine] belongs 27 nM; to `Cc1nn(-c2ccc(F)cc2)c(C)c1Nc1cc(-n2nc3ccccc3c2C)ncn1` [Example 103, N-[1-(4-fluorophenyl)-3,5-dimethyl-1H-pyrazol-4-yl]-6-(3-methyl-2H-indazol-2-yl)pyrimidin-4-amine], 64 nM; to `Cc1nn(-c2cc(Nc3c(C)c(-c4ccc(C#N)cc4)nn3CC3CC3)ncn2)c(C)c1C(O)C(F)(F)F` (single isomer, unassigned) [Example 360, 4-{1-(cyclopropylmethyl)-5-[(6-{3,5-dimethyl-4-[(1 S)-2,2,2-trifluoro-1-hydroxyethyl]-1H-pyrazol-1-yl}pyrimidin-4-yl)amino]-4-methyl-1H-pyrazol-3-yl}benzonitrile], 6 nM.
Under `Cc1cc(C(F)F)n(-c2cc(Nc3c(C)c(-c4ccc(OC(F)(F)F)cc4)nn3CC3CC3)ncn2)n1` [Example 309, N-{1-(cyclopropylmethyl)-4-methyl-3-[4-(trifluoromethoxy)phenyl]-1H-pyrazol-5-yl}-6-[5-(difluoromethyl)-3-methyl-1H-pyrazol-1-yl]pyrimidin-4-amine] stands 44 nM.
The compound `COc1ccc(-c2nn(CC3CC3)c(Nc3cc(-n4nc(C)c(Cl)c4C)ncn3)c2C)cc1` [Example 482, 6-(4-chloro-3,5-dimethyl-1H-pyrazol-1-yl)-N-[1-(cyclopropylmethyl)-3-(4-methoxyphenyl)-4-methyl-1H-pyrazol-5-yl]pyrimidin-4-amine] gave an IC50 of 52 nM.
The compound `Cc1nn(-c2cc(Nc3c(C)c(-c4ccc(F)cc4)nn3CC3CC3)ncn2)c(C)c1C(N(C)C)C(F)(F)F` (racemic) [Example 504, N-[1-(cyclopropylmethyl)-3-(4-fluorophenyl)-4-methyl-1H-pyrazol-5-yl]-6-{4-[(±)-1-(dimethylamino)-2,2,2-trifluoroethyl]-3,5-dimethyl-1H-pyrazol-1-yl}pyrimidin-4-amine] gave an IC50 of 5 nM.
Turning to `Cc1nn(-c2cc(Nc3nn(C)c(-c4ccc(F)cc4F)c3Cl)ncn2)c(C)c1Cl` [Example 56, N-[4-chloro-5-(2,4-difluorophenyl)-1-methyl-1H-pyrazol-3-yl]-6-(4-chloro-3,5-dimethyl-1H-pyrazol-1-yl)pyrimidin-4-amine], inhibition was half-maximal at 20.5 nM (IC50).
Under `Cc1ccc(-c2nn(CC3CC3)c(Nc3cc(-n4nc(C)cc4C(F)F)ncn3)c2C)cn1` [Example 415, N-[1-(cyclopropylmethyl)-4-methyl-3-(6-methylpyridin-3-yl)-1H-pyrazol-5-yl]-6-[5-(difluoromethyl)-3-methyl-1H-pyrazol-1-yl]pyrimidin-4-amine] stands 1150 nM.
Under `Cc1nn(-c2cc(Nc3c(C)c(-c4ccc(C#N)cc4)nn3CCC3CC3)ncn2)c(C(F)F)c1Cl` [Example 237, 4-[5-({6-[4-chloro-5-(difluoromethyl)-3-methyl-1H-pyrazol-1-yl]pyrimidin-4-yl}amino)-1-(2-cyclopropylethyl)-4-methyl-1H-pyrazol-3-yl]benzonitrile] stands 15 nM.
To `Cc1nn(-c2cc(Nc3nn(C)c(-c4ccc(F)cc4)c3C)ncn2)c(C)c1C1(O)CC1` [Example 138, 1-[1-(6-{[5-(4-fluorophenyl)-1,4-dimethyl-1H-pyrazol-3-yl]amino}pyrimidin-4-yl)-3,5-dimethyl-1H-pyrazol-4-yl]cyclopropanol] belongs 150 nM.
